The record followed here is US9617282B2, “Macrocyclic compounds as IRAK4 inhibitors for the treatment of inflammatory diseases” (BIOGEN MA INC., priority 2013, dated 2017).

The subject of one assay is A549 cells. In words: Cell-based assay, IL-6 ELISA quantification in IL-1 beta stimulated A549 cells. Particulars: 2 ng/ml human IL-1 beta overnight, class symbols, read-out: Celluar Data EC50. On the procedure:
The cell-based assays is based on IL-6 ELISA quantification. Briefly, A549 cells are cultured in DMEM with 10% FBS medium. When cells reach 80% confluence they are trypsin treated and seeded in 96-well plate at 2.5×10^4 cells/well. Then, 20 ul of compound serial dilutions (starting at 10 uM, 10 points) are added to the cell plate; incubate for 1 hour at 37 C and stimulated with 2 ng/ml human IL-1 beta 37 C overnight. The next day 100 ul of cell supernatant per well are analyzed on a Human IL-6 Quantikine ELISA kit from R&D Systems.
Background: ELISA stands for enzyme-linked immunosorbent assay.

For the next assay, the target named is IRAK4 (Homo sapiens (Human), UniProt Q9NWZ3). In words: IRAK-4 biochemical kinase assay, AlphaScreen format. Particulars: 1 nM IRAK4, 1.6 μM peptide, 10 μM ATP, 3.5 h at RT; class symbols. The procedure, abridged:
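AlphaScreen read-out: streptavidin beads bind the biotinylated peptide and protein A beads bind the anti-phosphothreonine antibody, so energy transfer reports phosphorylation of the peptide. The kinase is human IRAK-4.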

IRAK4, sequence (Q9NWZ3 whole entry, species assumed): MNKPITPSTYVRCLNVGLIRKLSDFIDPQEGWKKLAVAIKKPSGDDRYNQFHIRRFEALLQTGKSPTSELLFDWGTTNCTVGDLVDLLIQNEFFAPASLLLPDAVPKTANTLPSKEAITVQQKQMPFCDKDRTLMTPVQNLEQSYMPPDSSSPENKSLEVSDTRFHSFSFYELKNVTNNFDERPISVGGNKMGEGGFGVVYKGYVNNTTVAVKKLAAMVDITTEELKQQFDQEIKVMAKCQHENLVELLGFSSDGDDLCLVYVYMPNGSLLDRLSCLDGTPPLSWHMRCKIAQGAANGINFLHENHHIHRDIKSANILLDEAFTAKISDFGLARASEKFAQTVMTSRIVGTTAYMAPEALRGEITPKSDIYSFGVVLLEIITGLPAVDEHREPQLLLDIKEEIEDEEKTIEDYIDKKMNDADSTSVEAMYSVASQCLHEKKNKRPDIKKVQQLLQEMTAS

As for `CN1CCN(CCn2ncc3c2C(=O)NCCOCCNc2cc(ccn2)-c2nc(cs2)C(=O)N3)CC1` [Example 142], the EC50 in the assay on A549 cells was > 10 µM. Further, the 50% inhibitory concentration (IC50) against IRAK4 is < 1 µM.

For `CN1CCN(CCn2cc3c(n2)C(=O)NCCOCCNc2cc(ccn2)-c2nc(cs2)C(=O)N3)CC1` [Example 143], the 50% effective concentration (EC50) with A549 cells is < 10 µM. Besides, the half-maximal inhibitory concentration (IC50) at IRAK4 is < 0.1 µM.

Take `CC(C)(C)OC(=O)N1CCN(CCn2cc3c(n2)C(=O)NCCOCCNc2cc(ccn2)-c2nc(cs2)C(=O)N3)CC1` [Example 144]: in the assay on A549 cells, the EC50 is < 10 µM. Also, at IRAK4, the half-maximal inhibitory concentration (IC50) was < 0.1 µM.

Take `O=C1Nc2cn(CCN3CCNCC3)nc2C(=O)NCCOCCNc2cc(ccn2)-c2nc1cs2` [Example 145]: the half-maximal effective concentration (EC50) in the assay on A549 cells was < 10 µM. For the same compound, the IC50 against IRAK4 was < 0.1 µM.

For the compound `O=C(O)Cn1cc2c(n1)C(=O)NCCOCCOc1cc(ccn1)-c1nc(cs1)C(=O)N2` [Example 146], in the assay on A549 cells, the EC50 was > 10 µM. Also, the IC50 on IRAK4 was < 10 µM.

Turning to `NC(=O)Cn1cc2c(n1)C(=O)NCCOCCOc1cc(ccn1)-c1nc(cs1)C(=O)N2` [Example 147], the 50% effective concentration (EC50) in the assay with A549 cells is > 10 µM. Further, at IRAK4, the IC50 was < 1 µM.

For `O=C(O)CCn1cc2c(n1)C(=O)NCCOCCOc1cc(ccn1)-c1nc(cs1)C(=O)N2` [Example 149], in the assay with A549 cells, the EC50 was > 10 µM. Also, the IC50 against IRAK4 was < 1 µM.

`CCOC(=O)CCn1cc2c(n1)C(=O)NCCOCCOc1cc(ccn1)-c1nc(cs1)C(=O)N2` [Example 150]: the EC50 in the assay on A549 cells was > 10 µM. Further, the concentration for half-maximal inhibition (IC50) against IRAK4 is < 0.1 µM.

In the case of `NC(=O)CCn1cc2c(n1)C(=O)NCCOCCOc1cc(ccn1)-c1nc(cs1)C(=O)N2` [Example 151], the EC50 in the assay on A549 cells was > 10 µM. Further, at IRAK4, the 50% inhibitory concentration (IC50) is < 1 µM.

Turning to `O=C1Nc2cn(CCCO)nc2C(=O)NCCOCCOc2cc(ccn2)-c2nc1cs2` [Example 152], the concentration for a half-maximal effect (EC50) with A549 cells was > 10 µM. Besides, on IRAK4, the IC50 was < 0.1 µM.

Consider `CN1CCC(CCn2cc3c(n2)C(=O)NCCOCCOc2cc(ccn2)-c2nc(cs2)C(=O)N3)CC1` [Example 153], for which the EC50 in the assay with A549 cells was > 10 µM. On IRAK4, the IC50 was < 0.1 µM.

For `CC(C)(C)OC(=O)N1CCC(CCn2cc3c(n2)C(=O)NCCOCCOc2cc(ccn2)-c2nc(cs2)C(=O)N3)CC1` [Example 154], the concentration for a half-maximal effect (EC50) in the assay with A549 cells was > 10 µM. Besides, on IRAK4, the IC50 is < 0.1 µM.

As for `O=C1Nc2cn(CCC3CCNCC3)nc2C(=O)NCCOCCOc2cc(ccn2)-c2nc1cs2` [Example 155], the EC50 with A549 cells was > 10 µM. Besides, the IC50 on IRAK4 was < 0.1 µM.

On to `CN1CCC(Cn2cc3c(n2)C(=O)NCCOCCOc2cc(ccn2)-c2nc(cs2)C(=O)N3)CC1` [Example 158], for which the concentration for a half-maximal effect (EC50) in the assay with A549 cells is > 10 µM. Further, the 50% inhibitory concentration (IC50) against IRAK4 is < 1 µM.

In the case of `CC(C)(C)OC(=O)N1CCC(Cn2cc3c(n2)C(=O)NCCOCCOc2cc(ccn2)-c2nc(cs2)C(=O)N3)CC1` [Example 159], the EC50 in the assay on A549 cells was < 10 µM. Besides, at IRAK4, the IC50 is < 0.1 µM.

Turning to `O=C1Nc2cn(CC3CCNCC3)nc2C(=O)NCCOCCOc2cc(ccn2)-c2nc1cs2` [Example 160], the concentration giving a half-maximal response (EC50) in the assay on A549 cells is > 10 µM. Further, the IC50 on IRAK4 is < 1 µM.

As to `CNC(=O)Cn1cc2c(n1)C(=O)NCCOCCOc1cc(ccn1)-c1nc(cs1)C(=O)N2` [Example 161], in the assay on A549 cells, the concentration giving a half-maximal response (EC50) was > 10 µM. Moreover, the half-inhibitory concentration (IC50) against IRAK4 is < 0.1 µM.

Turning to `CC(C)n1cc2c(n1)C(=O)NCCOCCOc1cc(ccn1)-c1nc(cs1)C(=O)N2` [Example 162], the EC50 with A549 cells is > 10 µM. For the same compound, the concentration for half-maximal inhibition (IC50) on IRAK4 is < 0.1 µM.

Turning to `CC(C)(C)OC(=O)N1CCC(n2cc3c(n2)C(=O)NCCOCCOc2cc(ccn2)-c2nc(cs2)C(=O)N3)CC1` [Example 164], the half-maximal effective concentration (EC50) with A549 cells was < 10 µM. On IRAK4, the concentration for half-maximal inhibition (IC50) is < 0.1 µM.

For `CN(C)C(=O)Cn1cc2c(n1)C(=O)NCCOCCOc1cc(ccn1)-c1nc(cs1)C(=O)N2` [Example 166], in the assay with A549 cells, the EC50 is > 10 µM. Further, the half-maximal inhibitory concentration (IC50) at IRAK4 was < 1 µM.

With `CN1CCCc2cc(ccn2)-c2nc(cs2)C(=O)Nc2cn(C3CCOCC3)nc2C(=O)NCC1` [Example 169], the EC50 with A549 cells is > 10 µM. Moreover, the half-maximal inhibitory concentration (IC50) at IRAK4 is < 0.1 µM.

Take `CC(=O)N1CCCc2cc(ccn2)-c2nc(cs2)C(=O)Nc2cn(C3CCOCC3)nc2C(=O)NCC1` [Example 170]: in the assay on A549 cells, the 50% effective concentration (EC50) was < 1 µM. Further, the half-maximal inhibitory concentration (IC50) on IRAK4 was < 0.1 µM.

On to `O=C1Nc2cn(C3CCOCC3)nc2C(=O)NC2CC(=O)N(CCCc3cc(ccn3)-c3nc1cs3)C2=O` (centres unmarked) [Example 200], for which the EC50 in the assay on A549 cells is < 10 µM. Moreover, at IRAK4, the IC50 was < 0.1 µM.

`Cn1cc2c(n1)C(=O)NCCOCCCCc1cc(ccn1)-c1nc(cs1)C(=O)N2` [Example 217]: the EC50 with A549 cells was < 10 µM. Also, the IC50 on IRAK4 was < 0.1 µM.

Turning to `O=C1Nc2cn(C3CCOCC3)nc2C(=O)NCCOCCCCc2cc(ccn2)-c2nc1cs2` [Example 218], in the assay on A549 cells, the EC50 was < 10 µM. Moreover, the 50% inhibitory concentration (IC50) against IRAK4 was < 0.1 µM.

What is called EC50 is the concentration at which the effect is half-maximal. As usually defined, the IC50 is the point on the concentration scale where inhibition reaches its midpoint. Low values mean higher potency, high ones lower potency.
